The text below walks through data of patent publication US20180028627A1, “TREATMENT VACCINE FOR PROSTATE CANCER” (Bioventures, LLC, priority 2015, published 2018).

As usually defined, the Solubility is the dissolved amount per volume that the medium holds.

Series [1] in a line: PSA peptide solubility testing (turbidity). Particulars: for Solubility, peptides tested individually: pH 4 or pH 5 with succinate (10 mM) or glutamate (10 mM).
The test system of series [2] is CD3 T-cells co-cultured with autologous LCs. Kind of series: T-cell proliferation induced by treated LCs, alamarBlue. Type of series: cell-based, human.

In brackets after ≈: the same amount, converted by molar mass. Residues, ends and D or L forms follow the SMILES beside them.

Regarding `CC[C@H](C)[C@H](NC(=O)[C@H](Cc1c[nH]c2ccccc12)NC(=O)[C@@H](NC(=O)[C@@H](NC(=O)[C@H](CO)NC(=O)[C@H](CC(C)C)NC(=O)[C@@H](NC(=O)[C@H](CC(C)C)NC(=O)[C@H](Cc1ccccc1)NC(=O)[C@@H](NC(=O)[C@@H](NC(=O)[C@@H]1CCCN1C(=O)[C@@H](NC(=O)[C@H](Cc1c[nH]c2ccccc12)NC(=O)[C@H](CCSC)NC(C)=O)C(C)C)C(C)C)C(C)C)[C@@H](C)O)C(C)C)[C@@H](C)O)C(=O)NCC(=O)N[C@@H](C)C(=O)N[C@@H](C)C(=O)N1CCC[C@H]1C(=O)N[C@@H](CC(C)C)C(=O)N[C@H](C(=O)N[C@@H](CC(C)C)C(=O)N[C@@H](CO)C(=O)N[C@@H](CCCNC(=N)N)C(=O)N[C@H](C(=O)N[C@H](C(=O)NCC(=O)NCC(=O)N[C@@H](Cc1c[nH]c2ccccc12)C(=O)N[C@@H](CCC(=O)O)C(=O)N[C@@H](CS)C(=O)N[C@@H](CCC(=O)O)C(=O)N[C@@H](CCCCN)C(=O)N[C@@H](Cc1c[nH]cn1)C(=O)N[C@@H](CO)C(=O)N[C@@H](CCC(N)=O)C(=O)N1CCC[C@H]1C(=O)N[C@@H](Cc1c[nH]c2ccccc12)C(=O)N[C@@H](CCC(N)=O)C(=O)N[C@H](C(N)=O)C(C)C)C(C)C)[C@@H](C)CC)[C@@H](C)CC` [PSA 1-40, MWVPVVFLTLSVTWIGAAPLILSRIVGGWECEKHSQPWQV] (Ac-MWVPVVFLTLSVTWIGAAPLILSRIVGGWECEKHSQPWQV-NH2; N-terminus and C-terminus assumed), the Solubility entry in series [1] (after dilution from 20 mg/ml to 5 mg/ml, 10 mM succinate, pH5.0 with 5% glycine) is “remained insoluble”; in series [1] (at 20 mg/ml in 10 mM succinate, pH5.0 with 5% glycine), “insoluble”; in series [1] (in the presence of other PSA peptides) it was “solubility was enhanced”; in series [1] (pH 5) it was 5500 µg/mL (≈ 1200 µM). In series [1], the “Solubility, peptides tested individually” value is on record as “All except PSA 1-40 were soluble in both buffers”.

With `CC[C@H](C)[C@H](NC(=O)[C@H](CS)NC(=O)[C@H](Cc1c[nH]cn1)NC(=O)[C@H](C)NC(=O)[C@H](C)NC(=O)[C@@H](NC(=O)[C@H](CC(C)C)NC(=O)[C@@H](NC(=O)[C@H](Cc1c[nH]c2ccccc12)NC(=O)[C@H](CCC(N)=O)NC(=O)[C@@H]1CCCN1C(=O)[C@H](Cc1c[nH]cn1)NC(=O)[C@@H](NC(=O)[C@H](CC(C)C)NC(=O)[C@@H](NC(=O)CNC(=O)CNC(=O)[C@H](CS)NC(=O)[C@@H](NC(=O)[C@H](C)NC(=O)[C@H](CCCNC(=N)N)NC(=O)CNC(=O)[C@H](CCCNC(=N)N)NC(=O)[C@H](CO)NC(=O)[C@H](C)NC(=O)[C@@H](NC(=O)[C@H](CC(C)C)NC(C)=O)C(C)C)C(C)C)C(C)C)C(C)C)C(C)C)[C@@H](C)O)C(=O)N[C@@H](CCCNC(=N)N)C(=O)N[C@@H](CC(N)=O)C(=O)N[C@@H](CCCCN)C(=O)N[C@@H](CO)C(=O)N[C@H](C(=O)N[C@H](C(=O)N[C@@H](CC(C)C)C(=O)N[C@@H](CC(C)C)C(=O)NCC(=O)N[C@@H](CCCNC(=N)N)C(=O)N[C@@H](Cc1c[nH]cn1)C(=O)N[C@@H](CO)C(=O)N[C@@H](CC(C)C)C(N)=O)[C@@H](C)CC)C(C)C` [PSA 41-80, LVASRGRAVCGGVLVHPQWVLTAAHCIRNKSVILLGRHSL] (Ac-LVASRGRAVCGGVLVHPQWVLTAAHCIRNKSVILLGRHSL-NH2; N-terminus and C-terminus assumed), the “Solubility, peptides tested individually” value in series [1] is “soluble in both buffers”.

Regarding `CSCC[C@H](NC(=O)[C@H](CC(=O)O)NC(=O)[C@H](Cc1ccc(O)cc1)NC(=O)[C@H](CC(C)C)NC(=O)[C@@H]1CCCN1C(=O)[C@H](Cc1c[nH]cn1)NC(=O)[C@@H]1CCCN1C(=O)[C@H](Cc1ccccc1)NC(=O)[C@H](CO)NC(=O)[C@H](Cc1c[nH]cn1)NC(=O)[C@H](CO)NC(=O)[C@@H](NC(=O)[C@H](CCC(N)=O)NC(=O)[C@H](Cc1ccccc1)NC(=O)[C@@H](NC(=O)[C@H](CCC(N)=O)NC(=O)CNC(=O)[C@@H](NC(=O)[C@H](CC(=O)O)NC(=O)[C@H](CCC(=O)O)NC(=O)[C@@H]1CCCN1C(=O)[C@H](Cc1c[nH]cn1)NC(=O)[C@H](Cc1ccccc1)NC(C)=O)[C@@H](C)O)C(C)C)C(C)C)C(=O)N[C@@H](CO)C(=O)N[C@@H](CC(C)C)C(=O)N[C@@H](CC(C)C)C(=O)N[C@@H](CCCCN)C(=O)N[C@@H](CC(N)=O)C(=O)N[C@@H](CCCNC(=N)N)C(=O)N[C@@H](Cc1ccccc1)C(=O)N[C@@H](CC(C)C)C(=O)N[C@@H](CCCNC(=N)N)C(=O)N1CCC[C@H]1C(=O)NCC(=O)N[C@@H](CC(=O)O)C(=O)N[C@@H](CC(=O)O)C(=O)N[C@@H](CO)C(=O)N[C@@H](CO)C(=O)N[C@@H](Cc1c[nH]cn1)C(=O)N[C@@H](CC(=O)O)C(N)=O` [PSA 81-120, FHPEDTGQVFQVSHSFPHPLYDMSLLKNRFLRPGDDSSHD] (Ac-FHPEDTGQVFQVSHSFPHPLYDMSLLKNRFLRPGDDSSHD-NH2; N-terminus and C-terminus assumed), the “Solubility, peptides tested individually” value in series [1] is recorded as “soluble in both buffers”.

In the case of `CC[C@H](C)[C@H](NC(=O)[C@H](Cc1c[nH]c2ccccc12)NC(=O)[C@H](CCCCN)NC(=O)[C@H](CCCNC(=N)N)NC(=O)[C@H](Cc1ccc(O)cc1)NC(=O)[C@H](Cc1c[nH]cn1)NC(=O)[C@@H](NC(=O)[C@@H](NC(=O)[C@H](CCCCN)NC(=O)[C@@H](NC(=O)[C@H](Cc1ccc(O)cc1)NC(=O)[C@H](CC(C)C)NC(=O)[C@H](CO)NC(C)=O)[C@@H](C)O)C(C)C)C(C)C)C(=O)N[C@@H](CCCCN)C(=O)N[C@@H](CC(=O)O)C(=O)N[C@H](C(=O)N[C@H](C(=O)N[C@H](C(=O)N[C@@H](C)C(=O)N[C@@H](CC(N)=O)C(=O)N1CCC[C@H]1C(N)=O)C(C)C)[C@@H](C)CC)[C@@H](C)O` [PSA 241-261, SLYTKVVHYR KWIKDTIVAN P] (Ac-SLYTKVVHYRKWIKDTIVANP-NH2; N-terminus and C-terminus assumed), the “Solubility, peptides tested individually” value in series [1] is reported as “soluble in both buffers”.

Take tetanus toxoid: the T-cell proliferation result in series [2] (over media, 7 days co-culture of T cells with autologous LCs) is given as “no significant increase over media”. In series [2] (subjects 2 and 5), the “Measurable proliferation, increased fluorescence” value is given as not below 5000.
